Columns and labels:
[1] = molecular target: T1, native Aβ aggregates in human AD brain tissue sections (Homo sapiens, UniProt P05067); experiment: Aβ in vitro displacement assay (selectivity counterscreen, [3H]Example 3 autoradiography); format: binding; conditions: 3 nM [3H]Example 3, human AD brain sections; for inhibition at 1 µM: 1 μM compound, read-out: sel. counterscreen PCT_INHIB AD @ 1 μM (% displacement of [3H]Example 3); for inhibition at 3 µM: 3 μM compound, read-out: sel. counterscreen PCT_INHIB AD @ 3 μM
T1 construct: native Aβ aggregates in human AD brain tissue samples; from tissue; host or cells: human AD brain tissue sections

[2] = molecular target: T2, native aSyn aggregates in A30P transgenic mouse brain sections (Homo sapiens, UniProt P37840, A30P); experiment: aSyn in vitro displacement assay ([3H]Example-3 autoradiography); format: binding, mutant human aSyn gene); conditions: 3 nM [3H]Example-3, A30P transgenic mouse brain sections; for inhibition at 1 µM: 1 μM compound, read-out: PCT_INHIB A30P @ 1 μM (% displacement of [3H]Example-3); for inhibition at 3 µM: 3 μM compound, read-out: PCT_INHIB A30P @ 3 μM
T2 construct: from tissue; host or cells: brain sections (midbrain and pons as ROI) of A30P transgenic mice, line B6.D2-Tg(Thy1-SNCA*30P)31Pjk

[3] = molecular target: T3, aSyn aggregates in A30P transgenic mouse brain tissue (Homo sapiens, UniProt P37840, A30P); experiment: aSyn in vitro binding assay (autoradiography of tritiated compounds); design: species or system mutant human aSyn gene)
T3 construct: from tissue; host or cells: brain sections (midbrain and pons as ROI) of A30P transgenic mice, line B6.D2-Tg(Thy1-SNCA*30P)31Pjk
Method: (§1) Ten μm thick A30P transgenic mouse brain sections and human PD brain sections are generated with a cryostat (Leica CM3050) at −17° C. chamber temperature and −15° C. object temperature. Sections are transferred to Histobond+ microscope slides (Marienfeld Laboratory Glasware). After drying for 3 hours at room temperature the sections are stored at −20° C. The sections are incubated with the radioligand (0.3-30 nM) and the respective cold compound (at various concentrations) in 50 mM Tris buffer, pH 7.4 at room temperature for 30 min. After washing 3×10 min at 4° C. in 50 mM Tris buffer, pH 7.4 and 3 quick dips in H2O dist. at 4° C. the sections are dried at 4° C. for 3 h. The sections are placed in a FujiFilm Cassette, exposed to an Imaging Plate (BAS-IP TR 2025) for five days and afterwards scanned with a FujiFilm IP reader (BAS-5000) with a resolution of […] per pixel.
Antibody staining of sections is performed after exposure and scanning of the tissue sections undergoing classical autoradiographical analysis. Brain sections were hydrated in PBS and blocked in 1% bovine serum albumin, 1% ovalbumin and 1% normal goat serum in PSB for 20 min. This is followed by overnight incubation at 4° C. with a mixture of anti-aSyn pS129 monoclonal antibody (generated in-house; 1 μg/mL) in blocking buffer. […]

[4] = molecular target: T4, aSyn aggregates (LBs) in human PD brain tissue (Homo sapiens, UniProt P37840); experiment: aSyn in vitro binding assay on human PD tissue sections; conditions: higher magnification
T4 construct: tissue Banner Sun Health Research Institute; host or cells: human PD brain (cortical) tissue sections
Method: Human PD brain tissue blocks were obtained from the Banner Sun Health Research Institute (Sun City, Ariz., USA). Pathological diagnosis of PD was made according to standard criteria based on neuropathological data.
as §1
Antibody staining of sections is performed after exposure and scanning of the tissue sections undergoing classical autoradiographical analysis. Brain sections were hydrated in PBS and blocked in 1% bovine serum albumin, 1% ovalbumin and 1% normal goat serum in PSB for 20 min. […]

[5] = molecular target: native Aβ aggregates in human AD brain sections (Homo sapiens, UniProt P05067); experiment: Aβ in vitro binding assay (autoradiography); conditions: human AD cortical tissue section, 3 nM (FIG. 8)
Sequence of native Aβ aggregates in human AD brain sections (P05067 672-713 limits assumed): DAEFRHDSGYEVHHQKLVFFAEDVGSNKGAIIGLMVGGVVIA
Method: Ten μm thick A30P transgenic mouse brain sections and human PD brain sections are generated with a cryostat (Leica CM3050) at −17° C. chamber temperature and −15° C. object temperature. Sections are transferred to Histobond+ microscope slides (Marienfeld Laboratory Glasware). After drying for 3 hours at room temperature the sections are stored at −20° C. The sections are incubated with the radioligand (0.3-30 nM) and the respective cold compound (at various concentrations) in 50 mM Tris buffer, pH 7.4 at room temperature for 30 min. After washing 3×10 min at 4° C. in 50 mM Tris buffer, pH 7.4 and 3 quick dips in H2O dist. at 4° C. the sections are dried at 4° C. for 3 h. The sections are placed in a FujiFilm Cassette, exposed to an Imaging Plate (BAS-IP TR 2025) for five days and afterwards scanned with a FujiFilm IP reader (BAS-5000) with a resolution of 25 μM per pixel.
This direct in vitro binding assay assesses the affinity of radiotracers for native Aβ aggregates in tissue sections by autoradiography.

T1 sequence (P05067 672-713 limits assumed): as above

Row | Compound | inhibition at 1 µM [1] | inhibition at 1 µM [2] | inhibition at 3 µM [1] | inhibition at 3 µM [2] | also measured
1 | COc1ccc(C(=O)Nc2ccc(N3CCN(c4ccc(C#N)cn4)CC3)cc2)cc1C [Example 170, N-(4-(4-(5-Cyanopyridin-2-yl)piperazin-1-yl)phenyl)-4-methoxy-3-methylbenzamide] | 82% | 86% |  |  | 
2 | COc1ccc(C(=O)Nc2ccc(N3CCN(c4ccc(C#N)cn4)CC3)cc2)cn1 [Example 171, N-(4-(4-(5-Cyanopyridin-2-yl)piperazin-1-yl)phenyl)-6-methoxynicotinamide] | 92% | 89% |  |  | 
3 | COC(=O)c1ccc(N2CCN(c3ccc(NC(=O)c4ccc(OC)cc4)cc3)CC2)nc1 [Example 172, Methyl 6-(4-(4-(4-methoxybenzamido)phenyl)piperazin-1-yl)nicotinate] | 84% | 93% |  |  | 
4 | COc1ccc(C(=O)Nc2ccc(N3CCN(c4ccc(C#N)nc4)CC3)cc2)nc1 [Example 173, N-(4-(4-(6-Cyanopyridin-3-yl)piperazin-1-yl)phenyl)-5-methoxypicolinamide] | 82% | 83% |  |  | 
5 | C#CCOc1ccc(C(=O)Nc2ccc(N3CCN(c4ccc(C#N)cn4)CC3)cc2)cc1 [Example 174, N-[4-[4-(5-Cyano-2-pyridyl)piperazin-1-yl]phenyl]-4-prop-2-ynoxy-benzamide] |  |  | 100% | 87% | 
6 | C#CCOCCOc1ccc(C(=O)Nc2ccc(N3CCN(c4ccc(C#N)cn4)CC3)cc2)cc1 [Example 175, N-[4-[4-(5-Cyano-2-pyridyl)piperazin-1-yl]phenyl]-4-(2-prop-2-ynoxyethoxy)benzamide] |  |  | 98% | 85% | 
7 | C#Cc1ccc(N2CCN(c3ccc(NC(=O)c4ccc(OC)cc4)cc3)CC2)nc1 [Example 176, N-[4-[4-(5-Ethynyl-2-pyridyl)piperazin-1-yl]phenyl]-4-methoxy-benzamide] |  |  | 97% | 102% | 
8 | C#CCOc1ccc(C(=O)Nc2ccc(N3CCN(c4ccccn4)CC3)cc2)cc1 [Example 177, 4-Prop-2-ynoxy-N-[4-[4-(2-pyridyl)piperazin-1-yl]phenyl]benzamide] |  |  | 97% | 96% | 
9 | C#CCOCCOc1ccc(C(=O)Nc2ccc(N3CCN(c4ccccn4)CC3)cc2)cc1 [Example 178, 4-(2-Prop-2-ynoxyethoxy)-N-[4-[4-(2-pyridyl)piperazin-1-yl]phenyl]benzamide] |  |  | 93% | 97% | 
10 | [3H]C([3H])([3H])Oc1ccc(C(=O)Nc2ccc(N3CCN(c4ccccn4)CC3)cc2)cc1 [[^3H]Example-3, 4-[^3H3] Methoxy-N-[4-(4-pyridin-2-ylpiperazin-1-yl)phenyl]benzamide] |  |  |  |  | co-localization of radioligand binding and aSyn antibody pS129 staining ([3]; A30P transgenic mouse brain sections): excellent co-localization; binding to aSyn aggregates in A30P transgenic mouse brain tissue ([3]; radioligand 3 nM (FIG. 1), midbrain and pons): strong binding; co-localization of autoradiogram hot spots with LBs stained by aSyn mAb pS129 [4]: good co-localization
11 | [3H]C([3H])(F)Oc1ccc(C(=O)Nc2ccc(N3CCN(c4cccnc4)CC3)cc2)cc1 [[^3H]Example-134, [^3H]4-(Fluoromethoxy)-N-(4-(4-(pyridin-3-yl)piperazin-1-yl)phenyl)benzamide] |  |  |  |  | co-localization of radioligand binding and Aβ mAb staining [5]: excellent co-localization

From patent US11541132B2, “Radiolabeled compounds” (Hoffmann-La Roche Inc., priority 2017, dated 2023)
